# ChEMBL document CHEMBL5528083, “Discovery of a Novel Thienopyrimidine Compound as a Urate Transporter 1 and Glucose Transporter 9 Dual Inhibitor with Improved Efficacy and Favorable Druggability” (J Med Chem, 2024)
# pIC50: −log10 of the molar value.
# How the values were obtained:
# Cytochrome P450 1A2 = target: T1, Cytochrome P450 1A2 (Homo sapiens, UniProt P05177); experiment: Inhibition of CYP1A2 in human liver microsomes measured after 40 mins incubation by LC-MS/MS analysis; format: ADME, Microsome
# T1 sequence (P05177 whole entry): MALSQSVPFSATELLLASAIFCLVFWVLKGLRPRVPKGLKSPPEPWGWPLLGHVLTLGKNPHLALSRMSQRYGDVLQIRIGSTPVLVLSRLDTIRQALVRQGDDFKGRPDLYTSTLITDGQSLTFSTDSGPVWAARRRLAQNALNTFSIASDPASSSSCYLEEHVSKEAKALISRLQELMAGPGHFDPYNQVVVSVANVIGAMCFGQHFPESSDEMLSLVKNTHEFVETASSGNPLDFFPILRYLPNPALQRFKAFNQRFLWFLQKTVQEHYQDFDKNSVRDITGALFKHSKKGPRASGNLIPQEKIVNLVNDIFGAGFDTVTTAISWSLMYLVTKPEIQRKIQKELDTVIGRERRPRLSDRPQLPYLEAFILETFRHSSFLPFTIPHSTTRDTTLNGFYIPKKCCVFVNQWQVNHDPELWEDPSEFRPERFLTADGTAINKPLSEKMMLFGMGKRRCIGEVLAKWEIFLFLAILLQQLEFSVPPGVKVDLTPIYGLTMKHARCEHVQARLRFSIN
# [1] = Acute toxicity in Kunming mouse assessed as fatality rate at 500 mg/kg, po administered as single dose monitored for 7 days; format: organism-based; conditions: in vivo, po, 500 mg/kg, 168 h, time 7 day
# Rattus norvegicus [2] = experiment: Reduction in serum uric acid level in po dosed acute hyperuricemia state Sprague-Dawley rat model assessed as SUA level by measuring decrease ratio relative to control; format: functional; parameters: scale not given: the % may be the effect or the level left
# Cytochrome P450 2D6 = Cytochrome P450 2D6 (Homo sapiens, UniProt P10635); experiment: Inhibition of CYP2D6 in human liver microsomes measured after 40 mins incubation by LC-MS/MS analysis; format: ADME, Microsome
# Chain of Cytochrome P450 2D6 (P10635 whole entry): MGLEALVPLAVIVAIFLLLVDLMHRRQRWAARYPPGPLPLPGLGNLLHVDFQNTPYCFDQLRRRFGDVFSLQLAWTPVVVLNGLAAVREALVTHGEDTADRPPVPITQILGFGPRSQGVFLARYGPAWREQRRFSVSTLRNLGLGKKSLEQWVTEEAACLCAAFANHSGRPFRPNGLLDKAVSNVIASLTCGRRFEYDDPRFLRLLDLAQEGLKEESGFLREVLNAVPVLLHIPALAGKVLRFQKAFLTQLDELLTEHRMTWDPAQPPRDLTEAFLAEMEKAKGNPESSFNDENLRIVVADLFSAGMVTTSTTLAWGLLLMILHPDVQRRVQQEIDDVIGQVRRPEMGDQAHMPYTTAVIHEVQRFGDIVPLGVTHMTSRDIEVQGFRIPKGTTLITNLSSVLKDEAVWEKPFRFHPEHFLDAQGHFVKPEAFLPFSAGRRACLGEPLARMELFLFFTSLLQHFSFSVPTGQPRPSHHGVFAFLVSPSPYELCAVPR
# [3] = Toxicity in Kunming female mouse assessed as coagulation necrosis of hepatocyte at 100 mg/kg, po administered every other day for 14 days by H and E staining based assay; format: organism-based; conditions: 336 h, time 14 day
# Cytochrome P450 2C9 = Cytochrome P450 2C9 (Homo sapiens, UniProt P11712); experiment: Inhibition of CYP2C9 in human liver microsomes measured after 40 mins incubation by LC-MS/MS analysis; format: ADME, Microsome
# Chain of Cytochrome P450 2C9 (P11712 whole entry): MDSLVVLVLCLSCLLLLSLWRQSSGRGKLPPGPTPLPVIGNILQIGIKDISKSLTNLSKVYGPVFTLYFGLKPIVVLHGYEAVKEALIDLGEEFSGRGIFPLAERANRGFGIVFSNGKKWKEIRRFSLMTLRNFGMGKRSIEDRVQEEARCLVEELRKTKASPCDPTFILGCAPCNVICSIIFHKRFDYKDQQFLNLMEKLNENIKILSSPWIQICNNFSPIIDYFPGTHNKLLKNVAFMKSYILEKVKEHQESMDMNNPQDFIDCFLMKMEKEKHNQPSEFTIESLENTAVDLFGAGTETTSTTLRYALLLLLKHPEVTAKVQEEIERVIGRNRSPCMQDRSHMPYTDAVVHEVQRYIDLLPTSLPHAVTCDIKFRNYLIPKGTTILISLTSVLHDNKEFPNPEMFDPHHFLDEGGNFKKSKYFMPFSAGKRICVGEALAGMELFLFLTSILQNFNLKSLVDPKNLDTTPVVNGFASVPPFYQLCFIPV
# [4] = Subacute toxicity in Kunming female mouse assessed as change in body weight at 100 mg/kg, po administered every other day for 14 days; format: organism-based; conditions: in vivo, 336 h, time 14 day
# Mus musculus [5] = experiment: Reduction in serum uric acid level in acute hyperuricemia state Kunming mouse model assessed as SUA level at 1 mg/kg, po (reference value: 1037 +/- 106.59 uM); format: functional
# [6] = Acute toxicity in Kunming mouse assessed as lethargy at 250 to 1000 mg/kg, po administered as single dose monitored for 7 days; format: organism-based; conditions: in vivo, 168 h, dose 250-1000 mg/kg, time 7 day
# [7] = Half life in Sprague-Dawley rat at 2 mg/kg, iv measured upto 24 hrs by LC-MS/MS-AR analysis; format: ADME, organism-based; conditions: in vivo
# Mus musculus [8] = experiment: Reduction in serum uric acid level in acute hyperuricemia state Kunming mouse model assessed as SUA level by measuring decrease ratio at 0.5 mg/kg, po relative to control; format: functional; parameters: scale not given: the % may be the effect or the level left
# [9] = Oral bioavailability in Sprague-Dawley rat at 2 mg/kg measured upto 24 hrs by LC-MS/MS-AR analysis; format: ADME, organism-based; conditions: in vivo
# [10] = AUC (0 to t) in Sprague-Dawley rat at 2 mg/kg, po measured upto 24 hrs by LC-MS/MS-AR analysis; format: ADME, organism-based; conditions: in vivo
# Cytochrome P450 2C19 = Cytochrome P450 2C19 (Homo sapiens, UniProt P33261); experiment: Inhibition of CYP2C19 in human liver microsomes measured after 40 mins incubation by LC-MS/MS analysis; format: ADME, Microsome
# Chain of Cytochrome P450 2C19 (P33261 whole entry): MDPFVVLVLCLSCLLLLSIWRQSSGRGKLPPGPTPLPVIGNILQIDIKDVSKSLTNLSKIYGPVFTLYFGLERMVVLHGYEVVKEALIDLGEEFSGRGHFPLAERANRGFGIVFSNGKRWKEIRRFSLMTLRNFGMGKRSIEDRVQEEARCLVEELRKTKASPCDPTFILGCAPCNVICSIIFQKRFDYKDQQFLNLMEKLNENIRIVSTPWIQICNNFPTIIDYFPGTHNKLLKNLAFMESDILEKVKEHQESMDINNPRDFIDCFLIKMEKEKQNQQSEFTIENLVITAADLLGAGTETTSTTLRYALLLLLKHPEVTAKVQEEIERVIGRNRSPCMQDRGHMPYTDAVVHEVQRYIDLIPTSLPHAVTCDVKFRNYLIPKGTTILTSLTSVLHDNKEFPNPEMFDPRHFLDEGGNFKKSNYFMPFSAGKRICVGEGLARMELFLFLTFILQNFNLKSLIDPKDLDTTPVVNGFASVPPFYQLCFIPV
# [11] = MRT (0 to infinity) in Sprague-Dawley rat at 2 mg/kg, po measured upto 24 hrs by LC-MS/MS-AR analysis; format: ADME, organism-based; conditions: in vivo
# Mus musculus [12] = experiment: Reduction in serum uric acid level in acute hyperuricemia state Kunming mouse model assessed as SUA level by measuring decrease ratio at 0.25 mg/kg, po relative to control; format: functional; parameters: scale not given: the % may be the effect or the level left
# [13] = Tmax in Sprague-Dawley rat at 2 mg/kg, po measured upto 24 hrs by LC-MS/MS-AR analysis; format: ADME, organism-based; conditions: in vivo
# Mus musculus [14] = experiment: Reduction in serum uric acid level in acute hyperuricemia state Kunming mouse model assessed as SUA level at 0.5 mg/kg, po (reference value: 1037 +/- 106.59 uM); format: functional
# Rattus norvegicus [15] = experiment: Reduction in serum uric acid level in po dosed acute hyperuricemia state Sprague-Dawley rat model assessed as SUA level (reference value: 955.20 +/- 85.56 uM); format: functional
# [16] = MRT (0 to infinity) in Sprague-Dawley rat at 2 mg/kg, iv measured upto 24 hrs by LC-MS/MS-AR analysis; format: ADME, organism-based; conditions: in vivo
# [17] = Subacute toxicity in Kunming mouse assessed as abnormal behavior at 100 mg/kg, po administered every other day for 14 days; format: organism-based; conditions: in vivo, 336 h, time 14 day
# [18] = Cmax in Sprague-Dawley rat at 2 mg/kg, po measured upto 24 hrs by LC-MS/MS-AR analysis; format: ADME, organism-based; conditions: in vivo
# [19] = Tmax in Sprague-Dawley rat at 2 mg/kg, iv measured upto 24 hrs by LC-MS/MS-AR analysis; format: ADME, organism-based; conditions: in vivo
# [20] = AUC (0 to infinity) in Sprague-Dawley rat at 2 mg/kg, iv measured upto 24 hrs by LC-MS/MS-AR analysis; format: ADME, organism-based; conditions: in vivo
# Rattus norvegicus [21] = experiment: Potency index, ratio of compound to lesinurad for reduction in serum uric acid level in po dosed acute hyperuricemia state Sprague-Dawley rat model assessed as decrease ratio of SUA level; format: functional
# [22] = Acute toxicity in Kunming mouse assessed as anorexia at 250 to 1000 mg/kg, po administered as single dose monitored for 7 days; format: organism-based; conditions: in vivo, 168 h, dose 250-1000 mg/kg, time 7 day
# [23] = AUC (0 to t) in Sprague-Dawley rat at 2 mg/kg, iv measured upto 24 hrs by LC-MS/MS-AR analysis; format: ADME, organism-based; conditions: in vivo
compound,measurement,setting,value
O=C(O)CCCSc1nc(Nc2ccc(C3CC3)c3ccccc23)c2sccc2n1,pIC50,Cytochrome P450 1A2,5.02
same,Activity,[1],Non-Toxic
same,Activity,Rattus norvegicus [2],90.12%
same,pIC50,Cytochrome P450 2D6,< 4.70
same,Activity,[3],Non-Toxic
same,pIC50,Cytochrome P450 2C9,5.70
same,Activity,[4],Toxic
same,Activity,Mus musculus [5],208.6 µM
same,Activity,[6],Non-Toxic
same,half-life,[7],96 min
same,Activity,Mus musculus [8],66.49%
same,F,[9],20.1%
same,AUC(0-t) at 24 h,[10],1810 ng·h/mL
same,pIC50,Cytochrome P450 2C19,5.23
same,MRT inf,[11],150 min
same,Activity,Mus musculus [12],9.89%
same,Tmax,[13],15 min
same,Activity,Mus musculus [14],418.6 µM
same,Activity,Rattus norvegicus [15],190.8 µM
same,MRT inf,[16],30 min
same,Activity,[17],Non-Toxic
same,Cmax,[18],1270 ng/mL
same,Tmax,[19],4.98 min
same,AUC,[20],1922.9 ng·h/mL
same,Ratio,Rattus norvegicus [21],1.8
same,Activity,[22],Non-Toxic
same,AUC(0-t) at 24 h,[23],1900 ng·h/mL
